Results on five molecules are retold here after US20210402016A1, “RADIOLABELED BOMBESIN-DERIVED COMPOUNDS FOR IN VIVO IMAGING OF GASTRIN-RELEASING PEPTIDE RECEPTOR (GRPR) AND TREATMENT OF GRPR-RELATED DISORDERS” (Provincial Health Services Authority, priority 2018, published 2021).

One data set has as its system PC-3 cells. The data set can be described thus: Fluorometric calcium release assay (FLIPR Calcium 6). It is filed as cell-based, human. The protocol:
Calcium release assays were performed using a FLIPR Calcium 6 assay kit (Molecular Devices) according to published procedures (26). Briefly, 5×10^4 PC-3 cells were seeded overnight in 96-well clear bottom black plates. The growth medium was replaced with loading buffer containing a calcium-sensitive dye and incubated for 30 min at 37° C. The plate was placed in a FlexStation 3 microplate reader (Molecular Devices) and baseline fluorescent signals were acquired for 15 sec. […] The relative fluorescence unit (RFU=Max-Min) was used to determine the agonistic/antagonistic properties.

Another data set addresses T1, human GRPR (Homo sapiens, UniProt P30550).
T1 construct: endogenous in cells; host or cells: PC-3 human prostate adenocarcinoma cells (whole cells)
The data set can be described thus: Competition binding assay, displacement of [^125I-Tyr^4]Bombesin on PC-3 cells. The protocol: Cells were incubated 30-60 min at 37° C.

Data set [1] deals with nude mice bearing PC-3 tumors. The note with it: Dalm et al.; cited from earlier work.
In data set [2] the test system is PC-3 xenograft bearing mice. The data set can be described thus: Biodistribution in PC-3 tumor-bearing NRG mice (Example 1). Format: in vivo. The procedure: The mice were sacrificed by CO2 inhalation at 30 min, 1 h, and 2 h p.i. Blood was collected by cardiac puncture. Organs/tissues were harvested, rinsed with PBS, blotted dry, and weighed. The activity in tissues was assayed by gamma counter and expressed as the percentage injected dose per gram of tissue (% ID/g).

In data set [3] the test system is PC-3 xenograft bearing mice. Conditions: PET/CT, PC-3 tumor-bearing mice. The procedure: Animal experiments were approved by the Animal Ethics Committee of the University of British Columbia. Male NOD.Cg-Rag1^tm1Mom∥2rg^tm1Wjl/SzJ (NRG) mice obtained from an in-house colony were subcutaneously inoculated with 5×10^6 PC-3 cells (100 μL; 1:1 PBS/Matrigel), and tumors were grown for 2 to 3 weeks.
Mice were sedated and scanned (Siemens Inveon microPET/CT) with body temperature maintained by heating pad. […] PET data were acquired in list mode, reconstructed using 3-dimensional ordered-subsets expectation maximization (2 iterations) followed by a fast maximum a priori algorithm (18 iterations) with CT-based attenuation correction. Images were analyzed using the Inveon Research Workplace software (Siemens Healthineers).

A further data set addresses T2, GRPR (Mus musculus, UniProt P21729).
T2 construct: the latter value was determined using Swiss 3T3 cells (17); host or cells: Swiss 3T3 cells
The note with it: determined using Swiss 3T3 cells; read-out: Reported Ki value; cited from earlier work.

Where “and” joins values, the source holds several entries; their conditions need not be identical. Identical values can stand only once.

T1 sequence (P30550 whole entry): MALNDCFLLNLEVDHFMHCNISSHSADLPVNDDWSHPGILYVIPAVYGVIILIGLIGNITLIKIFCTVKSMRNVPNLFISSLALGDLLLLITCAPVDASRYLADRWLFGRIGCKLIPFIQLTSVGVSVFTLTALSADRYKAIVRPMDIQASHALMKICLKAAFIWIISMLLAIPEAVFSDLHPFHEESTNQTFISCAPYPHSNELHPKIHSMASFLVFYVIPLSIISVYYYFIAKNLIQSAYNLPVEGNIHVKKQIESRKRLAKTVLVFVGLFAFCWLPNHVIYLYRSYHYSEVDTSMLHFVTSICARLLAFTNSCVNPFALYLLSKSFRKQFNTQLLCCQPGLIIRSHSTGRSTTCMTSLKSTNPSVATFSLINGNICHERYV
T2 sequence (P21729 whole entry): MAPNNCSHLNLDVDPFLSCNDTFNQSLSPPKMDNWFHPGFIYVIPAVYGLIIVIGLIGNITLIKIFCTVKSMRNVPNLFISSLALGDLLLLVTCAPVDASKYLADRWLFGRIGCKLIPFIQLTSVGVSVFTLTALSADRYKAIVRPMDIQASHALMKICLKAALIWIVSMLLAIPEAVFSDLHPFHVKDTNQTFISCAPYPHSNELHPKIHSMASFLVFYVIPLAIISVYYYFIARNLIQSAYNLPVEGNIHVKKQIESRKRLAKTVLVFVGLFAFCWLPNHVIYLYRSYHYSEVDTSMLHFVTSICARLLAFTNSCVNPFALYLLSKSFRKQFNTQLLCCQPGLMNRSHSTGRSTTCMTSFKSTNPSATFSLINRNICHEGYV

As to `Nc1ncnc2c1ncn2[C@@H]1O[C@H](COP(=O)(O)OP(=O)(O)OP(=O)(O)O)[C@@H](O)[C@H]1O` [ATP, adenosine triphosphate, reference compound], the Intracellular calcium release with PC-3 cells (50 nM) is recorded as 511±45.5 RFUs.
As to `CC(C)CC(CC(C)C)NC(=O)[C@H](Cc1c[nH]cn1)NC(=O)CNC(=O)[C@@H](NC(=O)[C@H](C)NC(=O)[C@H](Cc1c[nH]c2ccccc12)NC(=O)[C@H](CCC(N)=O)NC(=O)[C@@H](Cc1ccccc1)NC(=O)COCC(=O)Nc1ccc(CNC(=O)CN2CCN(CC(=O)O)CCN(CC(=O)O)CCN(CC(=O)O)CC2)cc1)C(C)C` [Ga-NeoBOMB1, reference compound], affinity at human GRPR was put at a Ki of 1.71 ± 0.28 nM.
Consider `CC(C)CC(CC(C)C)NC(=O)[C@H](Cc1cnc[nH]1)NC(=O)CNC(=O)[C@@H](NC(=O)[C@H](C)NC(=O)[C@H](Cc1c[nH]c2ccccc12)NC(=O)[C@H](CCC(N)=O)NC(=O)[C@@H](Cc1ccccc1)NC(=O)COCC(=O)Nc1ccc(CNC(=O)CN2CCN(CC(=O)O)CCN(CC(=O)O)CCN(CC(=O)O)CC2)cc1)C(C)C` [^68Ga-NeoBOMB1, metal not drawn, reference compound], for which, in data set [1], the Uptake in pancreas was roughly 15 % ID/g and the Uptake in tumor is given as roughly 10 % ID/g. In addition, in data set [2] (30 min p.i.), the “Biodistribution PC-3 Tumor, Mean” value was 9.60±0.99 % ID/g and the “Biodistribution Pancreas, Mean” value worked out at 95.7±12.7 % ID/g. Further, in data set [2] (60 min p.i.), the “Biodistribution PC-3 Tumor, Mean” value is on record as 9.83±1.48 % ID/g; the “Biodistribution Pancreas, Mean” value was 122±28.4 % ID/g and 123±28.4 % ID/g. For the same molecule, in data set [2] (120 min p.i.), the “Biodistribution Blood, Mean” value was 0.45±0.10 % ID/g; the “Biodistribution PC-3 Tumor, Mean” value stood at 12.1±3.72 % ID/g; the “Biodistribution Pancreas, Mean” value was 139±26.8 % ID/g. In addition, in data set [3], the “Excretion / clearance pathway” value was “both the hepatobiliary and renal pathways”.
“D-Phe-Gln-Trp-Ala-Val-Gly-His-Leu-L-Tac-NH2 [RC-3950-II]”: the Ki (in general, a measure of affinity in units of concentration, obtained from inhibition or displacement) at GRPR is 0.078 nM.
As for “[D-Phe^6, Leu-NHEt^13, des-Met^14]Bombesin(6-14) [reference compound]”, the Intracellular calcium release in the data set on PC-3 cells (5 nM) was 22.3±16.8 RFUs; in the data set on PC-3 cells (50 nM), 42.0±20.4 RFUs.
